Source: patent US12497406B2, “Microbiocidal derivatives” (SYNGENTA CROP PROTECTION AG, priority 2019, dated 2025)

Columns and labels:
[1] = tested on: Glomerella lagenarium (Colletotrichum lagenarium); assay: Glomerella lagenarium (Colletotrichum lagenarium) / liquid culture (anthracnose); assay type: cell-based; conditions: Colletotrichum orbiculare, liquid culture (PDB), growth inhibition photometrically 3-4 days after application, compared to untreated control
Protocol: Example B3. Glomerella lagenarium (Colletotrichum lagenarium)/Liquid Culture (Anthracnose) Conidia of the fungus from cryogenic storage are directly mixed into nutrient broth (PDB potato dextrose broth). After placing a (DMSO) solution of test compound into a microtiter plate (96-well format), the nutrient broth containing the fungal spores is added. The test plates are incubated at 24° C. and the inhibition of growth is measured photometrically 3-4 days after application. […] […]-25, and P-26.

[2] = tested on: Mycosphaerella graminicola (Septoria tritici); assay: Mycosphaerella graminicola (Septoria tritici) / liquid culture (Septoria blotch); assay type: cell-based; conditions: Zymoseptoria tritici, liquid culture (PDB), growth inhibition photometrically 4-5 days after application, compared to untreated control
Protocol: (§1) Example B11. Mycosphaerella graminicola (Septoria tritici)/Liquid Culture (Septoria Blotch) Conidia of the fungus from cryogenic storage are directly mixed into nutrient broth (PDB potato dextrose broth). After placing a (DMSO) solution of test compound into a microtiter plate (96-well format), the nutrient broth containing the fungal spores is added. The test plates are incubated at 24° C. and the inhibition of growth is determined photometrically 4-5 days after application.

[3] = tested on: Monographella nivalis (Microdochium nivale); assay: Monographella nivalis (Microdochium nivale) / liquid culture (foot rot cereals); assay type: cell-based; conditions: liquid culture (PDB), growth inhibition photometrically 4-5 days after application, compared to untreated control
Protocol: as §1, with “B6. Monographella nivalis (Microdochium nivale)/Liquid” for “B11. Mycosphaerella graminicola (Septoria tritici)/Liquid”, “(Foot Rot Cereals)” for “(Septoria Blotch)”, “application. […] […]-25, and P-26.” for “application.”

[4] = tested on: Puccinia recondita f. sp. tritici; assay: Puccinia recondita f. sp. tritici / wheat / leaf disc preventative (brown rust); assay type: in vivo; conditions: foliar, wheat leaf segments cv. Kanzler, inoculated 1 day after application, compared to untreated control
Protocol: Example B8. Puccinia recondita f. Sp. tritici/Wheat/Leaf Disc Preventative (Brown Rust) Wheat leaf segments cv. Kanzler are placed on agar in multiwell plates (24-well format) and sprayed with the formulated test compound diluted in water. The leaf disks are inoculated with a spore suspension of the fungus 1 day after application. The inoculated leaf segments are incubated at 19° C. and 75% rh under a light regime of 12 h light/12 h darkness in a climate cabinet and the activity of a compound is assessed as percent disease control compared to untreated when an appropriate level of disease damage appears in untreated check leaf segments (7-9 days after application). […] […]-25, and P-26.

[5] = tested on: Magnaporthe grisea (Pyricularia oryzae); assay: whole plant or invertebrate; assay type: in vivo; conditions: foliar, read-out: control of Magnaporthe grisea
Pyrenophora teres = Pyrenophora teres / barley / leaf disc preventative (net blotch); assay type: in vivo; conditions: foliar, barley leaf segments cv. Hasso, inoculated 2 days after application, compared to untreated control
Protocol: Example B10. Pyrenophora teres/Barley/Leaf Disc Preventative (Net Blotch) Barley leaf segments cv. Hasso are placed on agar in a multiwell plate (24-well format) and sprayed with the formulated test compound diluted in water. The leaf segments are inoculated with a spore suspension of the fungus 2 days after application. The inoculated leaf segments are incubated at 20° C. and 65% rh under a light regime of 12 h light/12 h darkness in a climate cabinet and the activity of a compound is assessed as disease control compared to untreated when an appropriate level of disease damage appears in untreated check leaf segments (5-7 days after application). […] […]-25, and P-26.

Alternaria solani = Alternaria solani / tomato / leaf disc (early blight); assay type: in vivo; conditions: foliar, tomato leaf disks cv. Baby, inoculated 2 days after application, compared to untreated control
Protocol: Example B1. Alternaria solani/Tomato/Leaf Disc (Early Blight) Tomato leaf disks cv. Baby are placed on agar in multiwell plates (24-well format) and sprayed with the formulated test compound diluted in water. The leaf disks are inoculated with a spore suspension of the fungus 2 days after application. The inoculated leaf disks are incubated at 23° C./21° C. […] […]-24, and P-25.

[6] = tested on: Mycosphaerella arachidis (Cercospora arachidicola); assay: Mycosphaerella arachidis (Cercospora arachidicola) / liquid culture (early leaf spot); assay type: cell-based; conditions: liquid culture (PDB), growth inhibition photometrically 4-5 days after application, compared to untreated control
Protocol: as §1, with “B7.” for “B11.”, “arachidis (Cercospora arachidicola)/Liquid” for “graminicola (Septoria tritici)/Liquid”, “(Early Leaf Spot)” for “(Septoria Blotch)”, “application. […] […]-22, and P-25.” for “application.”

CC1Oc2cc(Nc3cccc(F)c3)nc(C(=O)NCC(C)(C)C)c2O1 (centres unmarked) [Compound P-2, N-(2,2-dimethylpropyl)-6-(3-fluoroanilino)-2-methyl-[1,3]dioxolo[4,5-c]pyridine-4-carboxamide]
≥ 80%: inhibition of growth at 20 ppm [1] | inhibition of growth at 20 ppm [2]

CC(C)CCNC(=O)c1nc(Nc2cc(F)nc(F)c2)cc2c1OCO2 [Compound P-12, 6-[(2,6-difluoro-4-pyridyl)amino]-N-isopentyl-[1,3]dioxolo[4,5-c]pyridine-4-carboxamide]
≥ 80%: inhibition of growth at 20 ppm [3] | pest or weed control at 200 ppm [4] | inhibition of growth at 20 ppm [2]

CC1(NC(=O)c2nc(Nc3cc(F)cc(F)c3)cc3c2OCO3)CCCCC1 [Compound P-26, 6-(3,5-difluoroanilino)-N-(1-methylcyclohexyl)-[1,3]dioxolo[4,5-c]pyridine-4-carboxamide]
≥ 80%: inhibition of growth at 20 ppm [1] | inhibition of growth at 20 ppm [3] | pest or weed control at 200 ppm [4] | pest or weed control at 200 ppm [5] | pest or weed control at 200 ppm (Pyrenophora teres) | inhibition of growth at 20 ppm [2]

CC(C)(C)CNC(=O)c1nc(Nc2cncc(F)c2)cc2c1OCO2 [Compound P-14, N-(2,2-dimethylpropyl)-6-[(5-fluoro-3-pyridyl)amino]-[1,3]dioxolo[4,5-c]pyridine-4-carboxamide]
≥ 80%: inhibition of growth at 20 ppm [1] | inhibition of growth at 20 ppm [3] | pest or weed control at 200 ppm [5] | inhibition of growth at 20 ppm [2]

CC1(NC(=O)c2nc(Nc3cc(F)cc(F)c3)cc3c2OCO3)CCOC1 (centres unmarked) [Compound P-23, 6-(3,5-difluoroanilino)-N-(3-methyltetrahydrofuran-3-yl)-[1,3]dioxolo[4,5-c]pyridine-4-carboxamide]
≥ 80%: pest or weed control at 200 ppm (Alternaria solani) | inhibition of growth at 20 ppm [1] | inhibition of growth at 20 ppm [3] | pest or weed control at 200 ppm (Pyrenophora teres) | inhibition of growth at 20 ppm [2]

CC1(C)CCC1NC(=O)c1nc(Nc2cc(F)nc(F)c2)cc2c1OCO2 (centres unmarked) [Compound P-10, 6-[(2,6-difluoro-4-pyridyl)amino]-N-(2,2-dimethylcyclobutyl)-[1,3]dioxolo[4,5-c]pyridine-4-carboxamide]
≥ 80%: inhibition of growth at 20 ppm [1] | inhibition of growth at 20 ppm [3] | inhibition of growth at 20 ppm [2]

CC1(C)CCC1NC(=O)c1nc(Nc2cc(F)cc(F)c2)cc2c1OCO2 (centres unmarked) [Compound P-11, 6-(3,5-difluoroanilino)-N-(2,2-dimethylcyclobutyl)-[1,3]dioxolo[4,5-c]pyridine-4-carboxamide]
≥ 80%: inhibition of growth at 20 ppm [1] | inhibition of growth at 20 ppm [3] | inhibition of growth at 20 ppm [6] | pest or weed control at 200 ppm [4] | inhibition of growth at 20 ppm [2]

CC1Oc2cc(Nc3ccccc3)nc(C(=O)NCC(C)(C)C)c2O1 (centres unmarked) [Compound P-1, 6-anilino-N-(2,2-dimethylpropyl)-2-methyl-[1,3]dioxolo[4,5-c]pyridine-4-carboxamide]
≥ 80%: inhibition of growth at 20 ppm [1]

CC(C)(NC(=O)c1nc(Nc2cc(F)cc(F)c2)cc2c1OCO2)c1ccccc1 [Compound P-20, 6-(3,5-difluoroanilino)-N-(1-methyl-1-phenyl-ethyl)-[1,3]dioxolo[4,5-c]pyridine-4-carboxamide]
≥ 80%: inhibition of growth at 20 ppm [1] | inhibition of growth at 20 ppm [3] | inhibition of growth at 20 ppm [2]

CC1(C)CCC1NC(=O)c1nc(Nc2cc(F)cc(F)c2)cc2c1OC(F)(F)O2 (centres unmarked) [Compound P-6, 6-(3,5-difluoroanilino)-N-(2,2-dimethylcyclobutyl)-2,2-difluoro-[1,3]dioxolo[4,5-c]pyridine-4-carboxamide]
≥ 80%: inhibition of growth at 20 ppm [1] | inhibition of growth at 20 ppm [3]

CC1Oc2cc(Nc3cc(F)cc(F)c3)nc(C(=O)NCC(C)(C)C)c2O1 (centres unmarked) [Compound P-3, 6-(3,5-difluoroanilino)-N-(2,2-dimethylpropyl)-2-methyl-[1,3]dioxolo[4,5-c]pyridine-4-carboxamide]
≥ 80%: inhibition of growth at 20 ppm [1]

CC(C)(C)CNC(=O)c1nc(Nc2cccc(F)c2)cc2c1OCO2 [Compound P-15, N-(2,2-dimethylpropyl)-6-(3-fluoroanilino)-[1,3]dioxolo[4,5-c]pyridine-4-carboxamide]
≥ 80%: inhibition of growth at 20 ppm [1] | inhibition of growth at 20 ppm [3] | inhibition of growth at 20 ppm [6] | pest or weed control at 200 ppm [5] | pest or weed control at 200 ppm (Pyrenophora teres) | inhibition of growth at 20 ppm [2]

CCC(C)(C)NC(=O)c1nc(Nc2cc(F)cc(F)c2)cc2c1OCO2 [Compound P-18, 6-(3,5-difluoroanilino)-N-(1,1-dimethylpropyl)-[1,3]dioxolo[4,5-c]pyridine-4-carboxamide]
≥ 80%: inhibition of growth at 20 ppm [1] | inhibition of growth at 20 ppm [3] | inhibition of growth at 20 ppm [6] | pest or weed control at 200 ppm [4] | pest or weed control at 200 ppm [5] | pest or weed control at 200 ppm (Pyrenophora teres) | inhibition of growth at 20 ppm [2]

CC(C)(C)CC(C)(C)NC(=O)c1nc(Nc2cc(F)cc(F)c2)cc2c1OCO2 [Compound P-17, 6-(3,5-difluoroanilino)-N-(1,1,3,3-tetramethylbutyl)-[1,3]dioxolo[4,5-c]pyridine-4-carboxamide]
≥ 80%: inhibition of growth at 20 ppm [3] | pest or weed control at 200 ppm [5] | inhibition of growth at 20 ppm [2]

CC(C)(C)CNC(=O)c1nc(Nc2cc(F)cc(F)c2)cc2c1OCO2 [Compound P-5, 6-(3,5-difluoroanilino)-N-(2,2-dimethylpropyl)-[1,3]dioxolo[4,5-c]pyridine-4-carboxamide]
≥ 80%: inhibition of growth at 20 ppm [1] | inhibition of growth at 20 ppm [3] | pest or weed control at 200 ppm [5] | pest or weed control at 200 ppm (Pyrenophora teres) | inhibition of growth at 20 ppm [2]

CC1(C)CCC1NC(=O)c1nc(N(C#N)c2cc(F)cc(F)c2)cc2c1OCO2 (centres unmarked) [Compound P-7, 6-(N-cyano-3,5-difluoro-anilino)-N-(2,2-dimethylcyclobutyl)-[1,3]dioxolo[4,5-c]pyridine-4-carboxamide]
≥ 80%: inhibition of growth at 20 ppm [1] | inhibition of growth at 20 ppm [3] | inhibition of growth at 20 ppm [2]

CC1(NC(=O)c2nc(Nc3cc(F)cc(F)c3)cc3c2OCO3)CSC1 [Compound P-19, 6-(3,5-difluoroanilino)-N-(3-methylthietan-3-yl)-[1,3]dioxolo[4,5-c]pyridine-4-carboxamide]
≥ 80%: pest or weed control at 200 ppm (Alternaria solani) | inhibition of growth at 20 ppm [1] | inhibition of growth at 20 ppm [3] | inhibition of growth at 20 ppm [6] | pest or weed control at 200 ppm [5] | pest or weed control at 200 ppm (Pyrenophora teres) | inhibition of growth at 20 ppm [2]

CC1(NC(=O)c2nc(Nc3cc(F)cc(F)c3)cc3c2OCO3)COC1 [Compound P-24, 6-(3,5-difluoroanilino)-N-(3-methyloxetan-3-yl)-[1,3]dioxolo[4,5-c]pyridine-4-carboxamide]
≥ 80%: pest or weed control at 200 ppm (Alternaria solani) | inhibition of growth at 20 ppm [1] | inhibition of growth at 20 ppm [3] | pest or weed control at 200 ppm [5] | inhibition of growth at 20 ppm [2]

CC1(C)CCC1NC(=O)c1nc(Nc2ccccc2)cc2c1OCO2 (centres unmarked) [Compound P-9, 6-anilino-N-(2,2-dimethylcyclobutyl)-[1,3]dioxolo[4,5-c]pyridine-4-carboxamide]
≥ 80%: pest or weed control at 200 ppm (Alternaria solani) | inhibition of growth at 20 ppm [1] | inhibition of growth at 20 ppm [3] | inhibition of growth at 20 ppm [6] | pest or weed control at 200 ppm (Pyrenophora teres) | inhibition of growth at 20 ppm [2]
